The record followed here is article PMC5034864 (Molecular microbiology, 2012).

Holding throughout (experiment): FRET of YPet-PilZ-CyPet fusion protein, titration
Holding throughout (format): binding

Assay [1] deals with PA4324 (Pseudomonas aeruginosa, UniProt Q9HW77).
Assay [2] deals with YcgR (STM1798) (Salmonella enterica, UniProt Q8ZP19).
Assay [3] concerns the target BcsA (STM3619) PilZ domain (Salmonella enterica, UniProt Q93IN2).
In assay [4] the target is PA3353 (Pseudomonas aeruginosa, UniProt Q9HYP3).

Molecules are shown by their SMILES.

Sequence of YcgR (STM1798) (Q8ZP19 whole entry, the tested form may be a part): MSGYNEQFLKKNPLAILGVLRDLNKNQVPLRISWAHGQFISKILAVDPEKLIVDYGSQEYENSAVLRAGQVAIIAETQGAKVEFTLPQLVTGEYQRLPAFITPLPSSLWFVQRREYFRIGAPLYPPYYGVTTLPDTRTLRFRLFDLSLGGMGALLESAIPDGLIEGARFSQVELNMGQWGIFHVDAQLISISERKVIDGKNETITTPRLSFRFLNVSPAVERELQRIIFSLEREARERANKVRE
Sequence of BcsA (STM3619) PilZ domain (Q93IN2 691-791): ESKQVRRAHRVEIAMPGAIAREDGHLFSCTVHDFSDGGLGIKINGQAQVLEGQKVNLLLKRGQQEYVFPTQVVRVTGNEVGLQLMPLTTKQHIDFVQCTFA

As to `Nc1nc2c(ncn2[C@@H]2O[C@@H]3CO[P@](=O)(O)O[C@H]4[C@@H](O)[C@H](n5cnc6c(=O)[nH]c(N)nc65)O[C@@H]4CO[P@](=O)(O)O[C@H]3[C@H]2O)c(=O)[nH]1` [c-di-GMP], the Kd came to 735 ± 474 nM in assay [1], 191 ± 18 nM in assay [2], 8240 ± 238 nM in assay [3] and 88 ± 17 nM in assay [4].

The Kd is the concentration at which binding is half-saturated. A high value points to a looser complex.
